Assay results from the Biogen ADME set (Fang et al. 2023).
≈ marks a conversion by molar mass, not a printed value.

Conditions: for aqueous solubility: pH 6.8

| Structure (SMILES) | MDR1-MDCK efflux ratio | intrinsic clearance, human liver microsomes [mL/min/kg] | intrinsic clearance, rat liver microsomes [mL/min/kg] | aqueous solubility [µg/mL] | fraction unbound, human plasma | fraction unbound, rat plasma |
| --- | --- | --- | --- | --- | --- | --- |
| Cc1cccc(C)c1OCC(=O)N(C)C1(C#N)CCC1 | 0.621 | 13.3 | 472 | 56.1 (≈ 206 µM) |  |  |
| O=c1ncn2nc(Sc3ccc(F)cc3F)ccc2c1-c1c(Cl)cccc1Cl | 8.01 | 14.6 | 90.4 | 12.9 (≈ 29.6 µM) |  |  |
| Cn1cnnc1CNc1ccccc1C#N | 4.56 | ≤ 4.74 | ≤ 10.7 | 33.6 (≈ 158 µM) |  |  |
| CCN1CCN(C(=O)CNc2ncnc3onc(C)c23)CC1 | 3.68 | ≤ 4.74 | ≤ 10.7 |  |  |  |
| COc1c(C)cnc(Cn2cnc3c(Cl)nc(N)nc32)c1C |  | 8.46 | 72.9 |  |  |  |
| CC(=O)NCCOc1ccc2ccccc2n1 |  | 12.9 | 89.1 |  |  |  |
| Cc1nc(Cn2ncc3ccccc3c2=O)cs1 | 0.681 | ≤ 4.74 | 103 | 45.1 (≈ 175 µM) |  |  |
| CCC(C)(C)NC(=O)C1(Cc2ccc(-c3cc(F)ccc3OC)cc2)CCOCC1 | 1.62 | 700 | 1020 | 12 (≈ 28.9 µM) |  |  |
| CC(C)CCNC(=O)c1ccc2ccccc2n1 |  | 168 | 640 | 7.28 (≈ 30 µM) |  |  |
| CCC(Nc1cnn(C)c1)c1ccc2c(c1)OCCO2 (stereo not drawn) | 0.835 | 11.4 | 332 | 37.7 (≈ 138 µM) |  |  |
| C[C@@H](NC(=O)c1cc(Br)c2c(c1)OCCO2)c1cn(-c2ccccc2)nn1 | 3.48 |  |  |  |  |  |
| Fc1cccc(N[C@H]2CCCN[C@H]2Cc2ccccc2)c1 |  | 61 | 658 | 42.6 (≈ 150 µM) |  |  |
| Cc1[nH]nc(CCC(=O)NCCCOC2CCCCC2)c1C | 18.2 | 63.5 | 4360 |  |  |  |
| O=C(NCc1cccc2c1OCCCO2)c1cscn1 |  | 7.67 | 82.9 |  |  |  |
| Cc1oc2ccccc2c1CNc1nnc(-c2ccncc2)o1 | 1.02 | 33.4 | 141 |  | 0.0522 | 0.00672 |
| COc1cccc(N2CCN(c3nc(C)cc(C)c3C#N)CC2)c1 | 0.519 |  |  | 0.9 (≈ 2.79 µM) |  |  |
| COc1ccc(Br)c(-c2nnc(N)o2)c1 | 0.707 | 16.4 | 59.2 | 24.8 (≈ 91.7 µM) |  |  |
| C[C@]1(O)CN(C(=O)Cn2cnc3ccccc32)CC[C@@H]1Oc1ccccc1 | 47.2 | 5.54 | 181 |  |  |  |
| C=CC(=O)Nc1cc(-n2c(=O)ccc3cnc4ccc(-c5ccc(NS(C)(=O)=O)cc5)cc4c32)ccc1C | 50.5 |  |  | 0.3 (≈ 0.572 µM) |  |  |

| Structure (SMILES) | MDR1-MDCK efflux ratio | intrinsic clearance, human liver microsomes [mL/min/kg] | intrinsic clearance, rat liver microsomes [mL/min/kg] | aqueous solubility [µg/mL] | fraction unbound, human plasma | fraction unbound, rat plasma |
| --- | --- | --- | --- | --- | --- | --- |
| NC(=O)c1cnn(Cc2cccc(F)c2)c1 |  | ≤ 4.74 | ≤ 10.7 |  |  |  |
| Oc1ccccc1NCc1ccccn1 |  | 24.9 | 600 | 44.1 (≈ 220 µM) |  |  |
| N#CCCn1ncnc1-c1cccc(C#N)c1 |  | ≤ 4.74 | ≤ 10.7 |  |  |  |
| O=C1Oc2nc3cc4c(cc3cc2CN1CCN1CCOCC1)OCO4 | 2.42 | 5.18 | 28.8 | 9.6 (≈ 26.9 µM) |  |  |
| CS(=O)(=O)CCN1CCC(n2c(=O)[nH]c3ccccc32)CC1 |  | ≤ 4.74 | ≤ 10.7 | 62.9 (≈ 194 µM) |  |  |
| Cc1nc(-c2ccccc2)nc(O)c1C | 0.634 | 19.3 | 54.3 |  |  |  |
| CCn1c(=O)n(CC)c2cc(N)ccc21 | 0.814 | ≤ 4.74 | 20 | 37.5 (≈ 183 µM) |  |  |
| c1ccc(OCc2cc(CC3(NCc4cnc5ccccc5c4)COC3)no2)cc1 | 1.29 | 153 | 1270 | 13.1 (≈ 32.6 µM) |  |  |
| O=C(NCCN1CCC(O)(c2cccc(F)c2)CC1)c1cccc(F)c1 | 5.65 | 9.11 | 245 | 53.5 (≈ 148 µM) |  |  |
| COc1ccc(F)cc1-c1ccc(-c2nnco2)cc1 |  | 23.8 | 333 |  |  |  |
| NC(=O)CN1CCC(CCc2ccccc2)CC1 |  | ≤ 4.74 | 461 | 41.3 (≈ 168 µM) |  |  |
| c1ccc2[nH]c(C3CCNCC3)nc2c1 |  |  |  | 56.3 (≈ 280 µM) |  |  |
| CSc1cccc(-c2ccccc2-c2nnc(C)o2)c1 | 0.652 | 145 | 2460 | 41.5 (≈ 147 µM) |  |  |
| N#Cc1ccccc1Cn1nnc(-c2ccccc2)n1 | 0.448 | 10.7 | 211 | 11.4 (≈ 43.8 µM) |  |  |
| COc1cccc(NC(=O)C2CNC2)c1 |  | ≤ 4.74 | 59.4 | 29.5 (≈ 143 µM) |  |  |
| Cc1nc(NCC(C)(C)c2ccccc2)n(C)n1 | 1.07 | 10.7 | 235 | 36.2 (≈ 148 µM) |  |  |
| Cc1ccnc(N2CCC(OCC3CCCC3)CC2)n1 | 0.515 | 108 | 5910 |  |  |  |
| CCc1nc(CNc2ccc(C#N)nc2)cs1 | 0.556 | ≤ 4.74 | 109 |  |  |  |
| Cc1ccc(-c2cnn3c(O)cc(Cn4cccn4)nc23)cc1 | 2.46 | 18.3 | 225 |  |  |  |

The remaining lines, values ahead:

| MDR1-MDCK efflux ratio | intrinsic clearance, human liver microsomes [mL/min/kg] | intrinsic clearance, rat liver microsomes [mL/min/kg] | aqueous solubility [µg/mL] | fraction unbound, human plasma | fraction unbound, rat plasma | Structure (SMILES) |
| --- | --- | --- | --- | --- | --- | --- |
| 1.73 | ≤ 4.74 | 112 |  |  |  | CCCc1ncncc1C(=O)NCc1noc(C2CC2)n1 |
| 61.4 | 129 | 107 | 48.2 |  |  | CCN1CCN(Cc2ccc(Nc3ncc(F)c(-c4cc(F)c5nc(C)n(C(C)C)c5c4)n3)nc2)CC1.CS(=O)(=O)O |
| 178 | ≤ 4.74 | ≤ 10.7 |  |  |  | CN1CCc2nc(C(=O)N[C@H]3C[C@@H](C(=O)N(C)C)CC[C@@H]3NC(=O)C(=O)Nc3ccc(Cl)cn3)sc2C1 |
| 26.6 | ≤ 4.74 | 80.4 |  |  |  | CCc1cc(CNC(=O)NC2CCN(CC3CCCCC3)CC2)on1 |
| 2.39 | 196 | 2510 |  |  |  | Cc1ccc2c(c1)cc(C(=O)N1CCOC(C(=O)N3CCc4ccccc4C3)C1)n2C (stereo not drawn) |
| 48.2 | 40.5 | 322 | 61.3 (≈ 145 µM) |  |  | Cn1c(-c2ccc(F)cc2)cnc1NC(=O)CCC(=O)N1CC(=O)Nc2ccccc21 |
| 4.25 | 31.9 | 548 | 35 (≈ 98.9 µM) |  |  | CCc1nc(C)c(Cn2ccnc2-c2cnc(N3CCCC3)nc2)s1 |
|  | 172 | 1520 | 49.2 (≈ 153 µM) |  |  | O=C(C1CCCN(c2ccccn2)C1)N1CCc2ccccc2C1 (stereo not drawn) |
| 0.714 | 33.3 | 2550 |  |  |  | COCc1ccc(SCC(=O)NC2CCCC2)cc1 |
| 4.86 | ≤ 4.74 | 11.2 | 19.8 (≈ 62.4 µM) |  |  | CNC(=O)C1CCN(Cc2ncc(-c3ccc(F)cc3)o2)CC1 |
| 1.21 | ≤ 4.74 | 19.8 |  |  |  | O=C(c1cc(F)ccc1F)N1CCN(C(=O)C2CC2)CC1 |
| 11.2 | 73.7 | 512 |  |  |  | O=C(CCCC(=O)N1CCN(c2nsc3ccccc23)CC1)Nc1nccs1 |
| 6.96 | ≤ 4.74 | 44.1 |  |  |  | CSc1ncccc1C(=O)Nc1ccc(-c2nnc(C)[nH]2)cc1 |
| 1.76 | 4.81 | 15.7 |  |  |  | N#CCN1CCC(CNC(=O)c2c(F)ccc(F)c2F)CC1 |
|  | 38.8 | 351 |  |  |  | CCNC(=O)c1noc(-c2cc(C(C)C)c(O)cc2O)c1-c1ccc(CN2CCOCC2)cc1 |
| 23.3 | ≤ 4.74 | 32.4 | 25 (≈ 71.3 µM) |  |  | Cc1ccc(-c2cn(CC3CCN(Cc4c[nH]c(C)n4)CC3)nn2)cc1 |
| 9.4 | 123 | 1680 |  |  |  | N#Cc1cc(CN2CCC(Nc3ncnc4sc(Cl)cc34)CC2)ccc1F |
| 0.649 | 29.3 | 217 | 42.4 (≈ 135 µM) |  |  | Cc1ccc(F)cc1NC(=O)c1cnc2onc(C(C)C)c2c1 |
| 1.44 | ≤ 4.74 | 11.4 |  |  |  | Cc1cc(C(=O)Nc2nnc3n2CCCC3)n(C)n1 |
| 30.1 | 18.4 | 119 | 20.2 (≈ 48.5 µM) |  |  | Cc1ccc2c(c1)C(=O)CC1(CCN(C(=O)c3ccc4nc(C)cc(O)c4c3)CC1)O2 |
| 10.1 |  |  |  |  |  | COc1cc2c(cc1OC)CN(C(=O)C1CCCN(C(=O)c3ccc(Cl)cc3)C1)CC2 (stereo not drawn) |
| 22.9 | ≤ 4.74 | 38.3 |  |  |  | Cc1n[nH]c(C2CCN(C(=O)NC3CCN(c4ccc(F)cc4)CC3)CC2)n1 |
